Measurements from ChEMBL document CHEMBL1132266, “Synthesis and evaluation of 1-position-modified inositol 1,4,5-trisphosphate analogs” (Bioorg Med Chem Lett, 1999).

molecular target: Inositol 1,4,5-trisphosphate-gated calcium channel ITPR3 (Homo sapiens, UniProt Q14573); test: Dissociation constant of compound was measured in IP3-binding domain(IBD) of human Inositol 1,4,5-trisphosphate receptor at pH 7.4
Sequence (Q14573 whole entry, the tested form may be a part): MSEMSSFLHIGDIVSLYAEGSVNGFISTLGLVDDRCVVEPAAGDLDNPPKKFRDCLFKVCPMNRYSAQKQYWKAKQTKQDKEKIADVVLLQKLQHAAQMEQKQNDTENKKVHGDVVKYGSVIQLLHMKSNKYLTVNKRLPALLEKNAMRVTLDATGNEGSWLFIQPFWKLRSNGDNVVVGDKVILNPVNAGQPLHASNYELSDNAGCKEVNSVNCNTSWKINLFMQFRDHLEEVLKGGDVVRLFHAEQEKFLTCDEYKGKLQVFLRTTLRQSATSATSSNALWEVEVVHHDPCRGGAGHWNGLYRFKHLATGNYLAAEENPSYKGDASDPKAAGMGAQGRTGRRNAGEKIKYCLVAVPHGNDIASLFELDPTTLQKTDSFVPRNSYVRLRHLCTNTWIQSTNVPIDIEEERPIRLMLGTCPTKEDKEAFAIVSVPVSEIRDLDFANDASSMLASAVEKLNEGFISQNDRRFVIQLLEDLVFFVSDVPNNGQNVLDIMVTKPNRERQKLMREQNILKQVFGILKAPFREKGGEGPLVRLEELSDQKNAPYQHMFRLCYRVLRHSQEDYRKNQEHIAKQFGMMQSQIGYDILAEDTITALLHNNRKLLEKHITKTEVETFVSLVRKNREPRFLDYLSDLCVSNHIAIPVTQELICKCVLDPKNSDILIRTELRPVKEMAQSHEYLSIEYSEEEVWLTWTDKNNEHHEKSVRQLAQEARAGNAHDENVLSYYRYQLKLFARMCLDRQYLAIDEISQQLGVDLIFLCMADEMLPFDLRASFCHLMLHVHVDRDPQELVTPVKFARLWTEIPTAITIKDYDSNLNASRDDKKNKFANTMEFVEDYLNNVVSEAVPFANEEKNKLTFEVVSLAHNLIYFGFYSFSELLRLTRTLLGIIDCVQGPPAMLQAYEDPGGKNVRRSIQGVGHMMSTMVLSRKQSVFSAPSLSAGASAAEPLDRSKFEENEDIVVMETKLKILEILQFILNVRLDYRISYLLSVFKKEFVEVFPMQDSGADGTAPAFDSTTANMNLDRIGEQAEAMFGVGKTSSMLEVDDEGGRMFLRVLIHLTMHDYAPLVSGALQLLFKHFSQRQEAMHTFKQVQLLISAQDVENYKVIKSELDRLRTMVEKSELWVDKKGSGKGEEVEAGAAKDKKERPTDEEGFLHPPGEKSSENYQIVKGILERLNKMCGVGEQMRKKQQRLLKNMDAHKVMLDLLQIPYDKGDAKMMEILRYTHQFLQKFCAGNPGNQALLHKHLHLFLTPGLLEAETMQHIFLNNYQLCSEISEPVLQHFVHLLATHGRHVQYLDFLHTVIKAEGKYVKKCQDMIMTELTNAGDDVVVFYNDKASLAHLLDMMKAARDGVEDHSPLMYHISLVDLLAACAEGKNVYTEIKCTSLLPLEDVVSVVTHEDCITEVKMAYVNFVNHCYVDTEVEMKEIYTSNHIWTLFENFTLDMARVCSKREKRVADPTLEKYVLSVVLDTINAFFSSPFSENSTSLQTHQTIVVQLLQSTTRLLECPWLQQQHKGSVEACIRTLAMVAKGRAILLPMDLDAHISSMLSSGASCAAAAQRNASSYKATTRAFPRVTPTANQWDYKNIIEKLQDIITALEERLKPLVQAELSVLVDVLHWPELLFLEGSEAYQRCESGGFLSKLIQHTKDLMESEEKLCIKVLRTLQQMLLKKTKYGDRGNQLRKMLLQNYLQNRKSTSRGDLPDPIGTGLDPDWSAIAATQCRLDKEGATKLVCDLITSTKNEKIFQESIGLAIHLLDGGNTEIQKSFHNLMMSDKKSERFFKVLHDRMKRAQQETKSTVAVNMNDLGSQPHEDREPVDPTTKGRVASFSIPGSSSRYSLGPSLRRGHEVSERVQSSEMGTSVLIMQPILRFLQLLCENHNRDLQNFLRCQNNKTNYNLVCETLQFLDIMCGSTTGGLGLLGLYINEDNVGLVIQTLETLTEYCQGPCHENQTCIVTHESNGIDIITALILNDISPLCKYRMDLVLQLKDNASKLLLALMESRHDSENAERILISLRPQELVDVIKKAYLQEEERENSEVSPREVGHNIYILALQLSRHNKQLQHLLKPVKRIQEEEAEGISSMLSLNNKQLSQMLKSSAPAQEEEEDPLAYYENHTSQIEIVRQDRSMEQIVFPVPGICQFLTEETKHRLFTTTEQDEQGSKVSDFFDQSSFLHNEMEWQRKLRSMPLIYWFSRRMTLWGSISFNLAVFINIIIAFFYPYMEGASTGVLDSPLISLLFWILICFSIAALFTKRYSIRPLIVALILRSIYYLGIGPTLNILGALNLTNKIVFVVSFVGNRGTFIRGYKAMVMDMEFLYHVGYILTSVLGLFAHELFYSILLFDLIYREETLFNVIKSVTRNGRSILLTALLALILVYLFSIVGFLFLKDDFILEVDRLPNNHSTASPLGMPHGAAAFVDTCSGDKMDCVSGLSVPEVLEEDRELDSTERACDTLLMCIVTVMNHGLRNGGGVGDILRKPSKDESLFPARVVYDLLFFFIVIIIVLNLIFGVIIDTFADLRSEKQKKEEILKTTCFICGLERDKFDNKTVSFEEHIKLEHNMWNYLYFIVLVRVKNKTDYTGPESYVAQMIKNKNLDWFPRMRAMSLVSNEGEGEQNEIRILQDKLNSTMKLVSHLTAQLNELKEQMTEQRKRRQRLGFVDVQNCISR

Kd [nM]	SMILES
1120	NCCCOP(=O)(O)O[C@@H]1[C@H](O)[C@H](O)[C@@H](OP(=O)(O)O)[C@H](OP(=O)(O)O)[C@H]1O
1.17	CN(C)c1ccc(C(=C2C=CC(=[N+](C)C)C=C2)c2ccc(C(=O)NCCCOP(=O)(O)O[C@@H]3[C@H](O)[C@H](O)[C@@H](OP(=O)(O)O)[C@H](OP(=O)(O)O)[C@H]3O)cc2)cc1
188	O=C(NCCCOP(=O)(O)O[C@@H]1[C@H](O)[C@H](O)[C@@H](OP(=O)(O)O)[C@H](OP(=O)(O)O)[C@H]1O)Oc1ccc2c(c1)Oc1cc(O)ccc1C21OC(=O)c2ccccc21 (stereo partly drawn)
